From the COVID Moonshot data (paper PMC7615835)
Values joined by “and” are separate entries in the source; they are usually repeats but may differ in a detail not shown here. Equal values may be shown once.

Molecular target: SARS-CoV-2 Main Protease (SARS-CoV-2) (UniProt P0DTD1)

| Structure (SMILES) | IC50 |
| --- | --- |
| C=CC(=O)N(c1cc(C(C)(C)C)on1)C(C(=O)Nc1cccc(CC)c1)c1cccnc1 (stereo not drawn) | > 99000 nM |
| COc1cc(C(=O)N(c2ccc(C(C)(C)C)cc2)C(C(=O)NCCc2cccc(F)c2)c2cccnc2)sn1 (stereo not drawn) | > 99500 nM |
| NC(=O)C1Cc2ccccc2CN1CC(=O)N1CCN(c2ncccn2)CC1 (stereo not drawn) | > 99500 nM |
| COc1ccc2nnn(CC(=O)N(Cc3ccccn3)c3ccc(C4CCNCC4)cc3)c2c1 | 38800 nM |
| O=C1NCC(C(=O)Nc2cnn3c2CCCC3)c2cc(Cl)ccc21 (stereo not drawn) | 30500 nM |
| Cc1ccc(N(Cc2cccc(Cl)c2)C(=O)Cn2nnc3ccccc32)cc1 | 2330 nM |
| O=C(Cc1cc(Cl)cc(N2CCC(C(F)(F)F)CC2)c1)Nc1cncc2ccccc12 | 1430 nM |
| O=C(Cc1cc(Cl)cc(Nc2ccc(OC(F)F)cc2)c1)Nc1cncc2ccccc12 | 1900 nM |
| O=C(O)c1ccc(CNCc2c[nH]nc2-c2cccs2)cc1 | > 99500 nM |
| O=C(Cc1cc(Cl)cc(N2CCN(c3nsc4ccccc34)CC2)c1)Nc1cncc2ccccc12 | 3340 nM |
| Cc1ccc2cncc(NC(=O)Cc3cccc(Cl)c3)c2c1 | 537 nM |
| O=C(Cc1cccc(Cl)c1)Nc1[nH]nc2cccc(F)c12 | > 99500 nM |
| Cc1nc2ccc(NC(=O)Cn3ncn4nccc4c3=O)cc2s1 | > 99500 nM |
| O=C(Cc1cc(Cl)cc(Nc2ccc(-n3ccnc3)cc2)c1)Nc1cncc2ccccc12 | 2460 nM |
| CS(=O)(=O)c1ccc2c(NC(=O)C3CN(CC(=O)NCC(F)(F)F)C(=O)c4ccc(Cl)cc43)cncc2c1 (stereo not drawn) | 287 nM |
| CS(=O)(=O)c1ccc(N(C(=O)c2cocn2)C(C(=O)NCCc2cccc(F)c2)c2cccnc2)cc1 (stereo not drawn) | 75900 nM |
| CC(NC(=O)COc1ccc(C(N)=O)cc1)(C(=O)Nc1cncc2ccccc12)c1ccc(Cl)c(Cl)c1 (stereo not drawn) | 10500 nM and 14300 nM |
| C#CCCCC(=O)N[C@H](C(=O)N[C@H](CC(C)C)C(=O)NN(CCC(N)=O)C(=O)/C=C/C(=O)OC)C(C)(C)C (stereo in doubt) | < 50 nM and 44 nM |
| O=C(CCc1cccc(Cl)c1)Nc1cncc2ccccc12 | 20800 nM |
| O=[N+]([O-])c1cnc(Sc2nnc(-c3ccc(Cl)cc3)o2)s1 | 881 nM |
| Cc1ccccc1C(C)N(C(=O)c1cnc[nH]1)C(C(=O)NCCc1cccc(F)c1)c1cccnc1 (stereo not drawn) | > 99000 nM |
| CC(CNC(=O)c1cnc2ccccn12)Nc1nc2ccccc2o1 (stereo not drawn) | > 99500 nM |
| Cc1cccc2nc(NC3CCN(c4ccc5nncn5n4)C3)sc12 (stereo not drawn) | > 99500 nM |
| O=C1NC[C@@H](C(=O)Nc2cncc3ccccc23)c2cc(Cl)ccc21 (stereo in doubt) | 99300 nM |
| CC(C)(C)c1ccc(N(C(=O)c2n[nH]c(=O)[nH]c2=O)C(C(=O)NCCc2cccc(F)c2)c2cccnc2)cc1 (stereo not drawn) | > 99500 nM |

| Structure (SMILES) | IC50 |
| --- | --- |
| CNC(=O)CN1Cc2ccc(Cl)cc2C2(CCN(c3cncc4c3CCCC4)C2=O)C1 (stereo not drawn) | 258 nM |
| O=C(CN1CC(C(=O)Nc2cncc3cc(F)ccc23)c2cc(Cl)ccc2C1=O)NCC1CC1 (stereo not drawn) | 216 nM |
| C=CC(=O)N(Cc1ccccc1Cl)C(C(=O)NC)c1cccnc1 (stereo not drawn) | > 99500 nM |
| Cc1ccc(NCc2nnc3n(C)c(=O)c4ccccc4n23)cc1C | > 99500 nM |
| O=C(Cc1cccc(Cl)c1)Nc1nnc2ccccn12 | > 99500 nM |
| C=CC(=O)N(c1ccc(C(C)(C)C)cc1)C(C(=O)NCc1ccc(F)cc1)c1cccnc1 (stereo not drawn) | 23300 nM |
| Cn1ncc2cc(N(C(=O)c3cocn3)C(C(=O)NCCc3cccc(F)c3)c3cccnc3)ccc21 (stereo not drawn) | 48000 nM |
| COc1ccc(C2CC(c3cccs3)=NN2C(=O)CCl)cc1OC (stereo not drawn) | 1750 nM and 2000 nM |
| O=C(Nc1cncc2ccccc12)c1ccnc2cc(Cl)c(Cl)cc12 | 28100 nM |
| COC[C@@]1(C(=O)Nc2cncc3ccccc23)CCOc2cc(Cl)c(Cl)cc21 (stereo in doubt) | 13000 nM and 21900 nM |
| CC(C)(C)c1ccc(N(C(=O)c2cocn2)C(C(=O)NCCN2CCOCC2)c2cccnc2)cc1 (stereo not drawn) | 82500 nM |
| O=C(Cc1cc(Cl)cc(Nc2ccc3scnc3c2)c1)Nc1cncc2ccccc12 | 2220 nM |
| Cn1cc(C(C(=O)NCCc2cccc(F)c2)N(C(=O)c2cocn2)c2ccc(C(C)(C)C)cc2)ccc1=O (stereo not drawn) | > 99500 nM |
| CC(C)(C)c1ccc(N(C(=O)c2nc3c(s2)CCC3)C(C(=O)NCCc2cccc(F)c2)c2cccnc2)cc1 (stereo not drawn) | > 99500 nM |
| COc1cccc(CCNc2cc(Cl)cc(CC(=O)Nc3cncc4ccccc34)c2)c1 | 3160 nM |
| O=C(Cc1cc(Cl)cc(N2CCN(C(=O)[C@@H]3COc4ccccc4O3)CC2)c1)Nc1cncc2ccccc12 (stereo in doubt) | 2740 nM |
| CC(C)Sc1ccccc1Nc1cc(Cl)cc(CC(=O)Nc2cncc3ccccc23)c1 | 2010 nM |
| O=C(Cc1cc(Cl)cc(Oc2cccnc2)c1)Nc1cncc2ccccc12 | 1140 nM and 1570 nM and 1170 nM |
| Cc1ccc(N(Cc2cscn2)C(=O)Cc2cncc3ccccc23)cc1 | 8090 nM |
| O=C(Cc1cc(Cl)cc(Nc2ccc(Br)nc2)c1)Nc1cncc2ccccc12 | 1940 nM |
| CNC(=O)CN1Cc2ccc(Cl)cc2C2(CCN(c3cncc4ccc(OC)cc34)C2=O)C1 (stereo not drawn) | 153 nM |
| O=C(Nc1cncc2ccccc12)C1CN(C2CCNC2=O)C(=O)c2ccc(Cl)cc21 (stereo not drawn) | 717 nM |
| Cc1ccn2ncc(C(=O)Nc3ccc4[nH]c(C)cc(=O)c4c3)c2n1 | > 99500 nM |
| Cc1ccn2c(NC(=O)Cc3cccc(Cl)c3)cnc2c1 | 19600 nM |
| CNC(=O)Nc1ccc(N(Cc2ccsc2)C(=O)Cn2nnc3ccccc32)cc1 | 1420 nM |

| Structure (SMILES) | IC50 |
| --- | --- |
| COc1ncc(NC(=O)Cc2cccc(Cl)c2)c2ccccc12 | > 99500 nM |
| CC(C)(C)c1ccc(N(C(=O)c2ccno2)C(C(=O)NCCc2cccc(F)c2)c2cccnc2)cc1 (stereo not drawn) | 1110 nM |
| O=C(Cc1cc(Cl)cc(Nc2ccc(SC(F)(F)F)cc2)c1)Nc1cncc2ccccc12 | 1840 nM |
| CCOC(=O)Cn1cc(C(=O)N(c2ccc(C(C)(C)C)cc2)C(C(=O)NCCc2cccc(F)c2)c2cccnc2)nn1 (stereo not drawn) | 44000 nM |
| O=C(CC1(C(=O)Nc2cncc3ccccc23)CCOc2ccc(Cl)cc21)N1CCCCC1c1ccn[nH]1 (stereo not drawn) | 616 nM |
| CC1(C(=O)Nc2cncc3c2CCCC3)CNS(=O)(=O)c2ccc(Cl)cc21 (stereo not drawn) | > 99500 nM |
| CNC(=O)CN1CC(C(=O)Nc2cncc3ccc(S(C)(=O)=O)cc23)c2cc(Cl)ccc2C1=O (stereo not drawn) | 330 nM |
| COC(=O)CN1Cc2ccc(Cl)cc2C(C(=O)Nc2cncc3ccccc23)C1 (stereo not drawn) | 1550 nM |
| O=C(Nc1cncc2c1CNCC2)C1CCOc2ccc(Cl)cc21 (stereo not drawn) | 6160 nM |
| Cc1ccncc1NC(=O)CN1CCC(C)CC1 | 49200 nM |
| O=C(CCl)N1CCCN(S(=O)(=O)c2cccc(F)c2)CC1 | 17200 nM |
| COc1cc(Cl)cc(CC(=O)Nc2cnccc2C)c1 | 36800 nM |
| CC(C)(C)c1ccc(N(C(=O)c2ccco2)C(C(=O)NCCc2cccc(F)c2)c2cc(=O)[nH]c3ccccc23)cc1 (stereo not drawn) | 2280 nM |
| O=C(NCCc1cccc(F)c1)C(c1cccnc1)N(C(=O)c1cnc[nH]1)C1CCCC2(CCC2)C1 (stereo not drawn) | > 99000 nM |
| Cc1cc(O)c(C(C(=O)NCCc2cccc(F)c2)N(C(=O)c2cocn2)c2ccc(C(C)(C)C)cc2)c(=O)[nH]1 (stereo not drawn) | > 99500 nM |
| COc1cc2c(cc1OC)CN(c1cc(Cl)cc(CC(=O)Nc3cncc4ccccc34)c1)CC2 | 1650 nM |
| O=C(Cc1cc(Cl)cc(Nc2ccc(Cl)c(Cl)c2F)c1)Nc1cncc2ccccc12 | 2260 nM |
| N#CC(C(=O)Nc1cncc2ccccc12)c1ccc(Cl)c(Cl)c1 (stereo not drawn) | 803 nM |
| COc1ccc(N(C(=O)c2cnc[nH]2)C(C(=O)NCCc2cccc(F)c2)c2cccnc2)cc1 (stereo not drawn) | 93700 nM |
| O=C(Cc1cc(Cl)cc(N2CCC(O)(c3ccc(Cl)cc3)CC2)c1)Nc1cncc2ccccc12 | 5210 nM |
| O=C1NCC(C(=O)Nc2cncc3ccccc23)c2cc(F)cc(F)c21 (stereo not drawn) | 1730 nM |
| N#CC1(CS(=O)(=O)N2Cc3ccc(Cl)cc3C(C(=O)Nc3cncc4ccccc34)C2)CCOCC1 (stereo not drawn) | 80.4 nM and 97.1 nM and 170 nM |
| O=C(Cc1cc(Cl)cc(Nc2ncc(C(F)(F)F)cc2Cl)c1)Nc1cncc2ccccc12 | 1700 nM |
| Cn1cnc2cc(N(C(=O)c3cocn3)C(C(=O)NCCc3cccc(F)c3)c3cccnc3)ccc21 (stereo not drawn) | > 99500 nM |
| COC(=O)C1CC(NC(=O)C(c2cccnc2)N(C(=O)c2cocn2)c2ccc(C(C)(C)C)cc2)C1 (stereo not drawn) | 3990 nM |

| Structure (SMILES) | IC50 |
| --- | --- |
| O=C(Cc1cccc(Cl)c1)NC1C(=O)NCc2ccccc21 (stereo not drawn) | > 99500 nM |
| NC(=O)c1c(Nc2cc(Cl)cc(CC(=O)Nc3cncc4ccccc34)c2)sc2c1CCCC2 | 2430 nM |
| Cn1cnc(C(=O)N(c2ccc(C(C)(C)C)cc2)C(C(=O)NCCc2cccc(F)c2)c2cccnc2)n1 (stereo not drawn) | 74200 nM |
| CC1(CS(=O)(=O)N2Cc3ccc(Cl)cc3C3(CCN(c4cncc5ccccc45)C3=O)C2)CS(=O)(=O)C1 (stereo not drawn) | 144 nM |
| O=C(Nc1cncc2ccccc12)N(CCC1CCCCC1)c1cccc(Cl)c1 | 261 nM |
| Cc1ccc2nc(Nc3cc(Cl)cc(CC(=O)Nc4cncc5ccccc45)c3)sc2c1 | 22900 nM |
| Cc1ccncc1NC(=O)CN(C)S(=O)(=O)c1cccc2cccnc12 | > 99000 nM |
| CS(=O)(=O)N1CCc2ccc(Cl)cc2C1C(=O)Nc1cncc2ccccc12 (stereo not drawn) | 1600 nM |
| O=C(Cc1cccc(Cl)c1)Nc1cncc2[nH]ncc12 | 21800 nM |
| O=C(Cc1cc(Cl)cc(Nc2ccccc2Cc2ccccc2)c1)Nc1cncc2ccccc12 | 1970 nM |
| Cc1cc(NC(=O)Cc2cncnc2)cc(OC2CC(=O)N2)c1 (stereo not drawn) | 34600 nM and 34000 nM |
| CC(=O)N1CCN(CC(=O)Nc2cnccc2C2CC2)CC1 | > 99500 nM |
| O=C(Cc1cc(Cl)cc(Nc2cc(Cl)c(Br)cn2)c1)Nc1cncc2ccccc12 | 1970 nM |
| O=C(CCl)N1CCN(C(c2ccccc2)c2ccccc2)CC1 | 1980 nM |
| COc1cccc(N2CCN(C(=O)c3cc(=O)[nH]c4ccccc34)CC2)c1 | 7550 nM |
| Cc1cc(Br)c(Cl)cc1Nc1cc(Cl)cc(CC(=O)Nc2cncc3ccccc23)c1 | 2020 nM |
| COc1ccc(CNc2cc(Cl)cc(CC(=O)Nc3cncc4ccccc34)c2)c(OC)c1 | 3370 nM |
| CC(C)(C)c1ccc(N(C(=O)c2cscn2)C(C(=O)NCCc2cccc(F)c2)c2cccnc2)cc1 (stereo not drawn) | 891 nM |
| N#CCS(=O)(=O)N1Cc2ccc(Cl)cc2C(C(=O)Nc2cncc3ccccc23)C1 (stereo not drawn) | 330 nM |
| Cc1ccncc1NC(=O)Cc1cc(Cl)cc(OCc2n[nH]c3ccccc23)c1 | > 99500 nM |
| O=C(Cc1cccc(Cl)c1)Nc1n[nH]c2ccncc12 | > 99500 nM |
| CCOC(=O)CCCNC(=O)C(c1cccnc1)N(C(=O)c1cocn1)c1ccc(C(C)(C)C)cc1 (stereo not drawn) | 6240 nM |
| O=C(Cc1cc(Cl)cc(Nc2ccn([C@H]3C[C@H](O)[C@@H](CO)O3)c(=O)n2)c1)Nc1cncc2ccccc12 (stereo in doubt) | 1840 nM |
